Counter-ions that a name gives are not always drawn.
target: T1, human LPA1 (Homo sapiens, UniProt Q92633); test: LPA1 functional antagonist assay (LPA-induced calcium flux in CHO cells overexpressing human LPA1); assay type: cell-based; conditions: inhibition of calcium flux induced by 10 nM LPA, CHO cells overexpressing human LPA1; read-out: hLPA1 IC50
T1 construct: expressed in transfected cells; host or cells: Chinese hamster ovary (CHO) cells
How it was run: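 CHO cells overexpressing human LPA1, dye-loaded 30 min at 37 °C, then given compound (0.08 nM–5 μM final, 0.5% DMSO) in HBSS/20 mM HEPES/0.1% fatty-acid-free BSA for 20 min at room temperature before 10 nM LPA. IC50 as 50% inhibition of LPA-evoked calcium flux, 4-parameter logistic fit.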

T1 sequence (Q92633 whole entry): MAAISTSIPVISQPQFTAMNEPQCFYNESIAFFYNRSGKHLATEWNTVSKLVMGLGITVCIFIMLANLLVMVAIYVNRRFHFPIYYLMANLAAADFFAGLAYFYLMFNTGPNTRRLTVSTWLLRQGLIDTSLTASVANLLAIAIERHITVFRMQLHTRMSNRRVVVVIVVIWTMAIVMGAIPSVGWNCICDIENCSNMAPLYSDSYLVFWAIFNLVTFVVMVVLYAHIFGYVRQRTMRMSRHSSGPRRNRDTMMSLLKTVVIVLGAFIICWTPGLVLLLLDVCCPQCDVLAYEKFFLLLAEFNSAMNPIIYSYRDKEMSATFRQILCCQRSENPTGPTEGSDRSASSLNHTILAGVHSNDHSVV

With `Cc1nc(-c2nnn(C)c2Nc2noc(CC3CC3)n2)ccc1O[C@H]1CCC[C@H](C(=O)O)C1` [Example 277, (1S,3S)-3-{[6-(5-{[5-(Cyclo-propylmethyl)-1,2,4-oxadiazol-3-yl]amino}-1-methyl-1H-1,2,3-triazol-4-yl)-2-methylpyridin-3-yl]oxy}cyclohexane-1-carboxylic acid, bis TFA salt] as the molecule, how does the IC50 read?
Its IC50 is 33 nM.

With `Cc1ccn(Cc2nnnn2Cc2c(-c3ccc(O[C@H]4CCC[C@H](C(=O)O)C4)c(C)n3)nnn2C)n1` [Example 303, (1S,3S)-3-({2-methyl-6-[1-methyl-5-({5-[(3-methyl-1H-pyrazol-1-yl)methyl]-1H-1,2,3,4-tetrazol-1-yl}methyl)-1H-1,2,3-triazol-4-yl]pyridin-3-yl}oxy)cyclohexane-1-carboxylic acid] as the molecule, how does the IC50 read?
The IC50 was 951 nM.

Which IC50 does the source give for `Cc1nc(-c2nnn(C)c2CNc2nnc(C(C)C)s2)ccc1O[C@H]1CCC[C@H](C(=O)O)C1` [Example 122] here?
The IC50 was 555 nM.

How did the IC50 turn out when `CCCc1noc(Cc2c(-c3ccc(O[C@H]4CCC[C@H](C(=O)O)C4)c(C)n3)nnn2C)n1` [Example 247, (1S,3S)-3-((2-methyl-6-(1-methyl-5-((3-propyl-1,2,4-oxadiazol-5-yl)methyl)-1H-1,2,3-triazol-4-yl)pyridin-3-yl)oxy)cyclohexane-1-carboxylic acid] was run?
Its IC50 is 82 nM.

`Cc1nc(-c2nnn(C)c2Cn2ncnc2C2CC2)ccc1O[C@H]1CCC[C@H](C(=O)O)C1` [Example 206] was tested. Which IC50 did it give?
Its IC50 is 1090 nM.

How did the IC50 turn out when `Cc1nc(-c2nnn(C)c2CNc2noc(C3CC(F)C3)n2)ccc1O[C@H]1CCC[C@H](C(=O)O)C1` (some centres unmarked) [Example 189] was run?
The IC50 was 74 nM.

`CCc1nc(-c2nnn(C)c2Cn2cc(Cc3ccccc3)nn2)ccc1O[C@H]1CCC[C@H](C(=O)O)C1` [Example 95] was tested. Which IC50 did it give?
The IC50 was 7 nM.

Which IC50 does the source give for `Cc1nc(-c2nnn(C)c2CNc2cnn(C3CCCCC3)n2)ccc1O[C@H]1CCC[C@H](C(=O)O)C1` [Example 27] here?
Its IC50 is 100 nM.

Which IC50 does the source give for `CCC(OC)c1nc(NCc2c(-c3ccc(O[C@H]4CCC[C@H](C(=O)O)C4)c(C)n3)nnn2C)no1` (mixture of isomers) [Example 217, (1S,3S)-3-((6-(5-(((5-(1-methoxy-propyl)-1,2,4-oxadiazol-3-yl)amino)methyl)-1-methyl-1H-1,2,3-triazol-4-yl)-2-methylpyridin-3-yl)oxy) cyclo-hexane-1-carboxylic acid] here?
The IC50 was 84 nM.

`Cc1nc(-c2nnn(C)c2CNc2nnc(C3CCCCC3)o2)ccc1O[C@H]1CCC[C@H](C(=O)O)C1` [Example 57] was tested. Which IC50 did it give?
The IC50 was 204 nM.

How did the IC50 turn out when `CCCc1nnc(OCc2c(-c3ccc(O[C@H]4CCC[C@H](C(=O)O)C4)c(C)n3)nnn2C)s1` [Example 132] was run?
The IC50 was 97 nM.

Which IC50 does the source give for `CCCCc1noc(NCc2c(-c3ccc(O[C@H]4CCC[C@H](C(=O)O)C4)c(C)n3)nnn2C)n1` [Example 43, (1S,3S)-3-((6-(5-(((3-Butyl-1,2,4-oxadiazol-5-yl)amino)methyl)-1-methyl-1H-1,2,3-triazol-4-yl)-2-methylpyridin-3-yl)oxy)cyclohexane-1-carboxylic acid, bis TFA salt] here?
Its IC50 is 76 nM.

With `Cc1nc(-c2nnn(C)c2CNc2nc(C3CC3)no2)ccc1O[C@H]1CCC[C@H](C(=O)O)C1` [Example 58] as the molecule, how does the IC50 read?
Its IC50 is 316 nM.

With `CCCCc1nc(NCc2c(-c3ccc(O[C@H]4CCC[C@H](C(=O)O)C4)cn3)nnn2C)no1` [Example 287, (1S,3S)-3-((6-(5-(((5-butyl-1,2,4-oxadiazol-3-yl)amino)methyl)-1-methyl-1H-1,2,3-triazol-4-yl)pyridin-3-yl)oxy)cyclohexane-1-carboxylic acid] as the molecule, how does the IC50 read?
Its IC50 is 124 nM.

With `CCCc1nc(NCc2c(-c3ccc(O[C@H]4CCC[C@H](C(=O)O)C4)c(C)n3)nnn2C)no1` [Example 68] as the molecule, how does the IC50 read?
Its IC50 is 42 nM.

For `Cc1nc(-c2nnn(C)c2CNc2ncc(C(C)C)o2)ccc1O[C@H]1CCC[C@H](C(=O)O)C1` [Example 139], which IC50 is on record?
Its IC50 is 38 nM.

`CCCc1cn(Cc2c(-c3ccc(O[C@H]4CCC[C@H](C(=O)O)C4)c(C)n3)nnn2C)nn1` [Example 269, (1 S,3S)-3-((2-methyl-6-(1-methyl-5-((4-propyl-1H-1,2,3-triazol-1-yl)methyl)-1H-1,2,3-triazol-4-yl)pyridin-3-yl)oxy)cyclohexane-1-carboxylic acid] was tested. Which IC50 did it give?
The IC50 was 76 nM.

For `CCCc1cnc(NCc2c(-c3ccc(O[C@H]4CCC[C@H](C(=O)O)C4)c(C)n3)nnn2C)o1` [Example 138], which IC50 is on record?
The IC50 was 36 nM.

`Cc1nc(-c2nnn(C)c2CNc2nnc(C3CC3)s2)ccc1O[C@H]1CCC[C@H](C(=O)O)C1` [Example 7] was tested. Which IC50 did it give?
The IC50 was 2240 nM.

How did the IC50 turn out when `Cc1nc(-c2nnn(C)c2Cn2nnnc2CCC2CC2)ccc1O[C@H]1CCC[C@H](C(=O)O)C1` [Example 357, (1S,3S)-3-{[6-(5-{[5-(2-cyclopro-pylethyl)-1H-1,2,3,4-tetrazol-1-yl]methyl}-1-methyl-1H-1,2,3-triazol-4-yl)-2-methylpyridin-3-yl]oxy}cyclohexane-1-carboxylic acid] was run?
Its IC50 is 332 nM.

For `CCCOC(C)c1nc(NCc2c(-c3ccc(O[C@H]4CCC[C@H](C(=O)O)C4)c(C)n3)nnn2C)no1` (mixture of isomers) [Example 218, (1S,3S)-3-((2-methyl-6-(1-methyl-5-(((5-(1-propoxyethyl)-1,2,4-oxadiazol-3-yl)amino)methyl)-1H-1,2,3-triazol-4-yl)pyridin-3-yl)oxy)cyclohexane-1-carboxylic acid], which IC50 is on record?
The IC50 was 35 nM.

With `Cc1nc(-c2nnn(C)c2Cn2nnc(OCC3CC3)n2)ccc1O[C@H]1CCC[C@@H](C(=O)O)C1` [Example 339, (1R,3S)-3-{[6-(5-{[5-(cyclopropyl-methoxy)-2H-1,2,3,4-tetrazol-2-yl]methyl}-1-methyl-1H-1,2,3-triazol-4-yl)-2-methylpyridin-3-yl]oxy}cyclohexane-1-carboxylic acid] as the molecule, how does the IC50 read?
Its IC50 is 192 nM.

`Cc1nc(-c2nnn(C)c2CNc2noc(-c3ccccc3)n2)ccc1O[C@H]1CCC[C@H](C(=O)O)C1` [Example 65] was tested. Which IC50 did it give?
Its IC50 is 23 nM.

`Cc1nc(-c2nnn(C)c2Cn2cc(Cc3ccccc3)nn2)ccc1O[C@H]1CCC[C@H](C(=O)O)C1` [Example 81] was tested. Which IC50 did it give?
The IC50 was 37 nM.

Which IC50 does the source give for `CCC(C)c1nc(NCc2c(-c3ccc(O[C@H]4CCC[C@H](C(=O)O)C4)c(C)n3)nnn2C)no1` (some centres unmarked) [Example 178] here?
Its IC50 is 27.4 nM.

Which IC50 does the source give for `Cc1nc(-c2nnn(C)c2Cn2nnc(OC3CC3)n2)ccc1O[C@H]1CCC[C@@H](C(=O)O)C1` [Example 341, (3S)-3-[(6-{5-[(5-cyclopropoxy-2H-1,2,3,4-tetrazol-2-yl)methyl]-1-methyl-1H-1,2,3-triazol-4-yl}-2-methylpyridin-3-yl)oxy]cyclo-hexane-1-carboxylic acid] here?
Its IC50 is 81 nM.

For `Cc1sc(NCc2c(-c3ccc(O[C@H]4CCC[C@H](C(=O)O)C4)cn3)nnn2C)nc1-c1ccccn1` [Example 98], which IC50 is on record?
The IC50 was 1050 nM.

Which IC50 does the source give for `Cc1nc(-c2nnn(C)c2Cn2nnc(OC3CCC3)n2)ccc1O[C@H]1CCC[C@@H](C(=O)O)C1` [Example 335, (1R,3S)-3-[(6-{5-[(5-cyclobutoxy-2H-1,2,3,4-tetrazol-2-yl)methyl]-1-methyl-1H-1,2,3-triazol-4-yl}-2-methylpyridin-3-yl)oxy]cyclo-hexane-1-carboxylic acid] here?
The IC50 was 405 nM.

`CC(C)Cc1nnn(Cc2c(-c3ccc(O[C@H]4CCC[C@H](C(=O)O)C4)cn3)nnn2C)n1` [Example 254, (1S,3S)-3-((6-(5-((5-isobutyl-2H-tetrazol-2-yl)methyl)-1-methyl-1H-1,2,3-triazol-4-yl)pyridin-3-yl)oxy)cyclohexane-1-carboxylic acid] was tested. Which IC50 did it give?
The IC50 was 288 nM.

Which IC50 does the source give for `Cc1nc(-c2nnn(C)c2CNc2nc(CC(C)C)no2)ccc1O[C@H]1CCC[C@H](C(=O)O)C1` [Example 157] here?
Its IC50 is 53 nM.

With `Cc1nc(-c2nnn(C)c2Nc2nc(-c3ccccc3)no2)ccc1O[C@H]1CCC[C@H](C(=O)O)C1` [Example 411, (1 S,3S)-3-((2-methyl-6-(1-methyl-5-((3-phenyl-1,2,4-oxadiazol-5-yl)amino)-1H-1,2,3-triazol-4-yl)pyridin-3-yl)oxy)cyclohexane-1-carboxylic acid] as the molecule, how does the IC50 read?
Its IC50 is 1440 nM.

With `Cc1nc(-c2nnn(C)c2CNc2nc(C(C)C)cs2)ccc1O[C@H]1CCC[C@H](C(=O)O)C1` [Example 12] as the molecule, how does the IC50 read?
Its IC50 is 745 nM.

`CCc1cnc(NCc2c(-c3ccc(O[C@H]4CCC[C@H](C(=O)O)C4)c(C)n3)nnn2C)o1` [Example 19] was tested. Which IC50 did it give?
Its IC50 is 106 nM.

same assay, conditions: read-out: hLPA1 IC50

With `CCc1nc(-c2nnn(C)c2CNc2nc(CC(C)C)ns2)ccc1O[C@H]1CCC[C@H](C(=O)O)C1` [Example 395, (1S,3S)-3-((2-ethyl-6-(5-(((3-isobutyl-1,2,4-thiadiazol-5-yl)amino)methyl)-1-methyl-1H-1,2,3-triazol-4-yl)pyridin-3-yl)oxy)cyclohexane-1-carboxylic acid] as the molecule, how does the IC50 read?
Its IC50 is 22 nM.

Which IC50 does the source give for `CCn1nnc(NCc2c(-c3ccc(O[C@H]4CCC[C@H](C(=O)O)C4)c(C)n3)nnn2C)n1` [Example 376, (1S,3S)-3-((6-(5-(((2-ethyl-2H-tetrazol-5-yl)amino)methyl)-1-methyl-1H-1,2,3-triazol-4-yl)-2-methylpyridin-3-yl)oxy)cyclohexane-1-carboxylic acid] here?
The IC50 was 2110 nM.

With `CCc1nc(-c2nnn(C)c2Cn2cc(CC(C)C)nn2)ccc1O[C@H]1CCC[C@H](C(=O)O)C1` [Example 370, (1S,3S)-3-((2-ethyl-6-(5-((4-isobutyl-1H-1,2,3-triazol-1-yl)methyl)-1-methyl-1H-1,2,3-triazol-4-yl)pyridin-3-yl)oxy)cyclohexane-1-carboxylic acid] as the molecule, how does the IC50 read?
Its IC50 is 66 nM.

Which IC50 does the source give for `Cc1nc(-c2nnn(C)c2Cn2nnc(N(C)Cc3ccccc3)n2)ccc1O[C@H]1CCC[C@H](C(=O)O)C1` [Example 364, (1S,3S)-3-((6-(5-((5-(benzyl(methyl)amino)-2H-tetrazol-2-yl)methyl)-1-methyl-1H-1,2,3-triazol-4-yl)-2-methylpyridin-3-yl)oxy)cyclohexane-1-carboxylic acid] here?
Its IC50 is 273 nM.

With `CCc1nc(-c2nnn(C)c2CNc2nc(C3CCCC3)ns2)ccc1O[C@H]1CCC[C@H](C(=O)O)C1` [Example 393, (1S,3S)-3-((6-(5-(((3-cyclopentyl-1,2,4-thiadiazol-5-yl)amino)methyl)-1-methyl-1H-1,2,3-triazol-4-yl)-2-ethylpyridin-3-yl)oxy)cyclohexane-1-carboxylic acid] as the molecule, how does the IC50 read?
The IC50 was 35 nM.

Source: patent US11319315B2, “Cyclohexyl acid triazole azoles as LPA antagonists” (BRISTOL-MYERS SQUIBB COMPANY, priority 2017, dated 2022)
